US9814736B2, “Use of 2-methylene-19-nor-(20S)-1α,25-dihydroxyvitamin D3 and calcimimetics to treat secondary hyperparathyroidism” (Wisconsin Alumni Research Foundation, priority 2014, dated 2017)
“Also recorded” adds a separate entry of the source. Read-outs that look alike come from different tables or passages of the source.

Legend:
[1] = test system: cultured bovine parathyroid cells; settings: cited from earlier work
serum PTH [2] = settings: uremic rats; cited from earlier work
serum PTH [3] = settings: uremic dogs; cited from earlier work
PTH [4] = test: Phase 2B double-blind, randomized, placebo-controlled study in hemodialysis patients: efficacy (serum iPTH); format: in vivo, human
Experimental: FIG. 3. Study schema for study participants. Participants discontinued use of the active vitamin D analogue (AVD) and cinacalcet (if applicable) prior to a washout period and subsequent administration of placebo or DP001 (440 ng, 3×/wk, for up to 12 weeks).
FIG. 6. Percentage of subjects achieving primary endpoint of two consecutive ≧30% decrease from his/her averaged baseline iPHT level during the 12-week treatment period. Pre-dialysis serum iPTH levels were measured using the Access Intact iPTH Assay from Beckman Coulter (p<0.0001, Fisher's exact test).
FIG. 7. Secondary efficacy endpoint as measured as the mean percentage change in serum iPTH from the averaged baseline value to the average of the last 2 on-treatment values. Data are presented as mean±SEM. p<0.0001, One-way ANOVA.
(§1) Subjects were administered DP001 (2MD) or placebo accordingly the study schema of FIG. 3. Subject disposition is illustrated in FIG. 4. As indicated, 129 subject were screened. Of these, 62 were enrolled and 67 were screen failures. Of the 62 enrollees, 28 were administered a placebo and 34 were administered DP001 (440 ng, 3×/wk for up to 12 weeks). Of the 28 enrollees who were administered the placebo, 22 completed the 12 week study and 6 discontinued for reasons illustrated. Of the 34 enrollees who were administered DP001, 31 completed the 12 week study and 3 discontinued for reasons illustrated.
The Primary Efficacy Endpoint was the proportion of subjects who achieved two consecutive ≧30% decrease from his/her Averaged Baseline iPTH level during the 12-week treatment period. (See FIG. 6). Pre-dialysis serum iPTH levels were measured using the Access Intact iPTH Assay from Beckman Coulter (p<0.0001, Fisher's exact test).
The secondary efficacy endpoint was the mean percentage change in serum iPTH from the Averaged Baseline value to the average of the last 2 on-treatment values. Data are presented in FIG. 7 as mean±SEM. p<0.0001, One-way ANOVA.

[5] = Phase 2B double-blind, randomized, placebo-controlled study in hemodialysis patients: safety; format: in vivo, human
Experimental: FIG. 9. Study enrollees exceeding safety threshold values for iPTH, Ca, and P.
FIG. 10. Number of adverse events (AEs) and serious adverse events (SAEs) for study enrollees.
as §1
The remaining 8 subjects were only dose-adjusted downward, indicating a starting dose lower than 440 ng would have been sufficient to suppress PTH. […] Only one patient receiving DP001 (2MD) had two consecutive corrected serum calcium values>10.5 mg/dL.

PTH [6] = test: Phase 2A open-label dose-ranging study of DP001 in hemodialysis patients; format: in vivo, human; settings: dialysis patients, orally 3 times weekly for 4 weeks
Experimental: FIG. 1. Change in plasma iPTH (%) versus concentration of DP001 (2MD). Chronic kidney disease—stage 5 patients were given DP001 at the indicated dose orally 3 times weekly for 4 weeks. Data are presented as mean±SEM. Plasma iPTH levels were measured using the Immulite Intact iPTH Assay from Siemens Healthcare Diagnostics.
FIG. 2. Safety parameter versus concentration of DP001 (2MD) for patients of FIG. 1. Data are presented as mean (standard deviation (SD)).
A Phase 2A, open-label, dose-ranging study of DP001 in hemodialysis patients was conducted to determine a starting dose of DP001 for the Phase 2B, randomized, placebo-controlled study described in this Example. […] (See FIGS. 1 and 2). Based on the results in FIGS. 1 and 2, an efficacious and safe starting dose of 440 ng was chosen. Data are presented as mean±SEM. Plasma iPTH levels were measured using the Immulite Intact iPTH Assay from Siemens Healthcare Diagnostics.

[7] = test system: MRL/lpr mouse model of systemic lupus erythematosus; settings: cited from earlier work

C=C1/C(=C\C=C2/CCC[C@]3(C)C([C@H](C)CC#CC(C)(C)O)=CC[C@@H]23)C[C@@H](O)C[C@@H]1O [1,25-(OH)2-16-ene-23-yne-D3]
suppression of PTH secretion relative to calcitriol [1]: nearly as effective as calcitriol

C=C1C(=CC=C2CCCC3(C)C2CCC3C(C)CCCCCC(C)(C)O)CC(O)CC1O (stereo not shown) [1,25-(OH)2-24-dihomo-D3]
suppression of PTH secretion relative to calcitriol [1]: nearly as effective as calcitriol

C=C1C(=CC=C2CCCC3(C)C2CCC3C(C)C=CCCCCC(C)(C)O)CC(O)CC1O (stereo not shown) [1,25-(OH)2-24-trihomo-22-ene-D3]
suppression of PTH secretion relative to calcitriol [1]: nearly as effective as calcitriol

C=C1/C(=C\C=C2/CCC[C@]3(C)[C@@H]([C@H](C)OCCC(C)(C)O)CC[C@@H]23)C[C@@H](O)C[C@@H]1O [22-oxacalcitriol]
suppression of serum PTH (serum PTH [2]): suppress serum PTH
suppression of serum PTH (serum PTH [3]): suppress serum PTH
suppression of PTH secretion relative to calcitriol [1]: nearly as effective as calcitriol

C=C1[C@H](O)CC(=C/C=C2\CCC[C@@]3(C)C2CCC3[C@@H](C)CCCC(C)(C)O)C[C@H]1O (stereo partly drawn) [DP001, 2-methylene-19-nor-(20S)-1α,25-dihydroxyvitamin D3]
subjects achieving primary endpoint (two consecutive ≧30% decrease from averaged baseline iPTH) (PTH [4]; CKD-5D, 3x weekly oral, starting dose 440 ng, 12-week treatment, p<0.0001): 78 % of subjects
reduction of serum iPTH (secondary endpoint: mean percentage change from averaged baseline) (PTH [4]; CKD-5D, 3x weekly oral, starting dose 440 ng, by 12 weeks, p<0.0001): 46%
PTH lowering in subjects previously treated with AVD and cinacalcet (calcimimetic) (PTH [4]; DP001 alone, CKD-5D patients previously on cinacalcet): effectively reduced PTH levels; also recorded: successfully treats SHPT in patients previously taking a calcimimetic
serum calcium values ([5]; 12-week treatment): remained in the normal range
patients with two consecutive corrected serum calcium values >10.5 mg/dL ([5]; 34 enrollees on DP001): one
subjects that reached the safety threshold for PTH ([5]; 34 enrollees on DP001, 440 ng 3x/wk up to 12 weeks): 14 subjects
adverse event reporting versus placebo ([5]; between treatment groups): no significant differences in adverse event reporting between treatment groups
patients surpassing corrected-serum calcium and phosphorus product safety threshold ([5]; both had high serum phosphorus at baseline): two
serious adverse events (SAEs) related to drug ([5]; judged by investigators): No serious adverse events (SAEs) were judged by the investigators to be related to DP001
change in serum calcium (PTH [6]): without changing serum calcium
suppression of PTH (plasma iPTH) (PTH [6]): suppresses PTH in dialysis patients in a dose-dependent fashion

C=C1/C(=C\C=C2/CCC[C@]3(C)[C@@H]([C@H](C)CCCC(C)(C)O)CC[C@@H]23)C[C@@H](O)C[C@@H]1O [calcitriol, 1α,25-(OH)2D3]
hypercalcemia ([7]; accompanying calcitriol treatment): severe hypercalcemia always accompanied this treatment
proteinuria ([7]; calcitriol administered through the diet): completely prevents proteinuria
